Data on 10 molecules can be found in PubChem BioAssay (NCI).

Test in all cases: growth of human tumour cells (NCI), 48 h
Experiment [1] has as its system EKVX NSCLC.
For experiment [2], the system named is SF-539 CNS.
For experiment [3], the system named is COLO 205 colon.
Experiment [4] has as its system HCT-116 colon.
Experiment [5] deals with MDA-MB-435.
For experiment [6], the system named is NCI/ADR-RES ovarian.
The subject of experiment [7] is BT-549 breast.
Experiment [8] relates to NCI-H23 lung.

Several values for one entry are separate records, joined by “and”; a condition that tells them apart may be missing. Equal entries are not always repeated.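 All cell lines were grown in 96-well plates and treated with compound for 48 hours. Here, GI50 denotes the concentration required for 50% inhibition of growth. TGI: concentration producing complete growth inhibition.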 Some results are limits rather than exact numbers.

With `CCNC(=O)Nc1ccc(-c2nc3c(c(N4CCOC[C@@H]4C)n2)CCN(C2COC2)C3)cc1`, the GI50 in experiment [1] was 323 nM; in experiment [2] it was 247 nM and 336 nM; in experiment [3], 289 nM and 268 nM; in experiment [4], 1190 nM and 780 nM; in experiment [5], 300 nM and 318 nM; in experiment [6], 2870 nM and 1780 nM. The GI50 in experiment [7] was 175 nM and 115 nM; in experiment [8], 690 nM and 512 nM. The TGI in experiment [1] was > 9.65 µM; in experiment [2], 1.85 µM and 3.53 µM; in experiment [3], > 100 µM; in experiment [4] it was > 100 µM; in experiment [5], > 25.6 µM; in experiment [6], > 100 µM. Also, the TGI is 1.96 µM and 1.79 µM in experiment [7]; > 100 µM in experiment [8].

As for `Cc1nc(NC(=O)COc2cccc(/C=C3\COc4ccccc4C3=O)c2)sc1C`, the GI50 in experiment [1] was 1240 nM; in experiment [2] it was 1730 nM; in experiment [3] it was 1960 nM; in experiment [4], 1530 nM; in experiment [5], 2140 nM; in experiment [6], 3120 nM. Further, the GI50 in experiment [7] was 1590 nM; in experiment [8], 1920 nM. Further, the TGI in experiment [1] is 3.12 µM; in experiment [2] it was 3.46 µM; in experiment [3], 3.88 µM; in experiment [4], 3.04 µM; in experiment [5] it was 5.74 µM; in experiment [6] it was 9.79 µM. Moreover, the TGI was found to be 3.28 µM in experiment [7] and 4.12 µM in experiment [8].

Regarding `Oc1ccc(Cl)cc1Cc1cc(Cl)cc(Cc2cc(Cl)ccc2O)c1O`, the TGI worked out at 7.19 µM in experiment [1]; 4.37 µM in experiment [2]; 3.25 µM in experiment [3]; 9.33 µM in experiment [4]; 9.3 µM in experiment [5]; 6.82 µM in experiment [6]. The TGI in experiment [7] came out at 9.61 µM; in experiment [8] it was 6.62 µM.

As for `CN(C)c1cc2c(Nc3ccc4nc(Cc5ccccc5)[nH]c4c3)ncnc2cn1`, the GI50 is 8680 nM in experiment [1]; 14400 nM in experiment [2]; > 25000 nM in experiment [3]; 13100 nM in experiment [4]; > 20900 nM in experiment [5]; > 25000 nM in experiment [6]. Moreover, the values for the GI50 in experiment [7] and in experiment [8] were > 18200 nM and > 23900 nM, respectively. For the same molecule, the TGI in experiment [1], in experiment [2], in experiment [3], in experiment [4], in experiment [5] and in experiment [6] was > 25 µM each time. The TGI in experiment [7] and in experiment [8] was > 25 µM throughout.

With `C[C@H]1O[C@@H](O[C@H]2[C@@H](O)C[C@H](O[C@H]3[C@@H](O)C[C@H](O[C@H]4CC[C@]5(C)C6C[C@@H](O)[C@]7(C)[C@@H](C8=CC(=O)OC8)CC[C@]7(O)C6CC[C@@H]5C4)O[C@@H]3C)O[C@@H]2C)C[C@H](O)[C@@H]1O` (some centres undefined), the GI50 in experiment [1] is 37.7 nM; in experiment [2], 64.8 nM; in experiment [3], 146 nM; in experiment [4], 20.7 nM; in experiment [5], 135 nM; in experiment [6], 55.2 nM. Further, the GI50 is 24.6 nM in experiment [7] and 25.1 nM in experiment [8]. For the same molecule, the TGI in experiment [1] was 0.124 µM; in experiment [2], 0.139 µM; in experiment [3], 0.374 µM; in experiment [4], 0.0972 µM; in experiment [5], 0.418 µM; in experiment [6] it was 0.147 µM. Further, the values for the TGI in experiment [7] and in experiment [8] were 0.0928 µM and 0.112 µM, respectively.

In the case of `O=C(/C=C\c1cccc([N+](=O)[O-])c1)c1ccccc1`, the GI50 in experiment [1] is 13100 nM; in experiment [2], 3400 nM; in experiment [3], 2040 nM; in experiment [4], 1720 nM; in experiment [5], 3530 nM; in experiment [6], 5480 nM. The GI50 in experiment [7] is 2850 nM; in experiment [8], 6160 nM. The TGI was found to be 29.1 µM in experiment [1]; 9.81 µM in experiment [2]; 4.12 µM in experiment [3]; 5.07 µM in experiment [4]; 14.4 µM in experiment [5]; 30.1 µM in experiment [6]. In addition, the TGI turned out to be 12.1 µM in experiment [7] and 21.3 µM in experiment [8].

Take `N#CC(NC12CC3CC(CC(C3)C1)C2)c1ccccc1` (centres undefined): the TGI in experiment [1], in experiment [2], in experiment [3], in experiment [4], in experiment [5] and in experiment [6] was > 100 µM in each case. For the same molecule, the TGI in experiment [7] and in experiment [8] was > 100 µM each time.

With `Cc1oncc1C(=O)Nc1ccc(C(F)(F)F)cc1`, the GI50 was 18700 nM in experiment [1]; 60300 nM in experiment [2]; > 100000 nM in experiment [3]; 15600 nM in experiment [4]; 46900 nM in experiment [5]; 45100 nM in experiment [6]. Further, the results for the GI50 in experiment [7] and in experiment [8] were 22100 nM and 42400 nM, respectively. The TGI in experiment [1], in experiment [2], in experiment [3], in experiment [4], in experiment [5] and in experiment [6] was > 100 µM in each case. Also, the TGI in experiment [7] and in experiment [8] was > 100 µM throughout.

For `COC(=O)c1c2c(c[n+]([O-])c1C)C(=O)C(NCc1ccccc1)=CC2=O`, the GI50 in experiment [1] is 1060 nM; in experiment [2], 457 nM; in experiment [3] it was 312 nM; in experiment [4] it was 269 nM; in experiment [5], 193 nM; in experiment [6], 302 nM. In addition, the GI50 in experiment [7] was 1190 nM; in experiment [8], 485 nM. The TGI came out at 2.56 µM in experiment [1]; 1.67 µM in experiment [2]; 0.984 µM in experiment [3]; 0.924 µM in experiment [4]; 0.376 µM in experiment [5]; 1.37 µM in experiment [6]. The TGI in experiment [7] worked out at 2.54 µM; in experiment [8], 2.6 µM.

In the case of `NC(=O)c1cccc(N)c1`, the GI50 in experiment [1], in experiment [2], in experiment [3], in experiment [4], in experiment [5] and in experiment [6] was > 100000 nM throughout. The GI50 in experiment [7] and in experiment [8] was > 100000 nM in each case. For the same molecule, the TGI in experiment [1], in experiment [2], in experiment [3], in experiment [4], in experiment [5] and in experiment [6] was > 100 µM throughout. Moreover, the TGI in experiment [7] and in experiment [8] was > 100 µM each time.
